PMC5386833 (Oncogene, 2016)

Biological target: BRCA1/BARD1 (Homo sapiens, UniProt P38398+Q99728)
Assay: ReBiL luminescence protein interaction assay, BRCA1/BARD1 negative control
Conditions: dosing above 10 μM, 10% serum

Chain of BRCA1/BARD1 (P38398 whole entry, species assumed): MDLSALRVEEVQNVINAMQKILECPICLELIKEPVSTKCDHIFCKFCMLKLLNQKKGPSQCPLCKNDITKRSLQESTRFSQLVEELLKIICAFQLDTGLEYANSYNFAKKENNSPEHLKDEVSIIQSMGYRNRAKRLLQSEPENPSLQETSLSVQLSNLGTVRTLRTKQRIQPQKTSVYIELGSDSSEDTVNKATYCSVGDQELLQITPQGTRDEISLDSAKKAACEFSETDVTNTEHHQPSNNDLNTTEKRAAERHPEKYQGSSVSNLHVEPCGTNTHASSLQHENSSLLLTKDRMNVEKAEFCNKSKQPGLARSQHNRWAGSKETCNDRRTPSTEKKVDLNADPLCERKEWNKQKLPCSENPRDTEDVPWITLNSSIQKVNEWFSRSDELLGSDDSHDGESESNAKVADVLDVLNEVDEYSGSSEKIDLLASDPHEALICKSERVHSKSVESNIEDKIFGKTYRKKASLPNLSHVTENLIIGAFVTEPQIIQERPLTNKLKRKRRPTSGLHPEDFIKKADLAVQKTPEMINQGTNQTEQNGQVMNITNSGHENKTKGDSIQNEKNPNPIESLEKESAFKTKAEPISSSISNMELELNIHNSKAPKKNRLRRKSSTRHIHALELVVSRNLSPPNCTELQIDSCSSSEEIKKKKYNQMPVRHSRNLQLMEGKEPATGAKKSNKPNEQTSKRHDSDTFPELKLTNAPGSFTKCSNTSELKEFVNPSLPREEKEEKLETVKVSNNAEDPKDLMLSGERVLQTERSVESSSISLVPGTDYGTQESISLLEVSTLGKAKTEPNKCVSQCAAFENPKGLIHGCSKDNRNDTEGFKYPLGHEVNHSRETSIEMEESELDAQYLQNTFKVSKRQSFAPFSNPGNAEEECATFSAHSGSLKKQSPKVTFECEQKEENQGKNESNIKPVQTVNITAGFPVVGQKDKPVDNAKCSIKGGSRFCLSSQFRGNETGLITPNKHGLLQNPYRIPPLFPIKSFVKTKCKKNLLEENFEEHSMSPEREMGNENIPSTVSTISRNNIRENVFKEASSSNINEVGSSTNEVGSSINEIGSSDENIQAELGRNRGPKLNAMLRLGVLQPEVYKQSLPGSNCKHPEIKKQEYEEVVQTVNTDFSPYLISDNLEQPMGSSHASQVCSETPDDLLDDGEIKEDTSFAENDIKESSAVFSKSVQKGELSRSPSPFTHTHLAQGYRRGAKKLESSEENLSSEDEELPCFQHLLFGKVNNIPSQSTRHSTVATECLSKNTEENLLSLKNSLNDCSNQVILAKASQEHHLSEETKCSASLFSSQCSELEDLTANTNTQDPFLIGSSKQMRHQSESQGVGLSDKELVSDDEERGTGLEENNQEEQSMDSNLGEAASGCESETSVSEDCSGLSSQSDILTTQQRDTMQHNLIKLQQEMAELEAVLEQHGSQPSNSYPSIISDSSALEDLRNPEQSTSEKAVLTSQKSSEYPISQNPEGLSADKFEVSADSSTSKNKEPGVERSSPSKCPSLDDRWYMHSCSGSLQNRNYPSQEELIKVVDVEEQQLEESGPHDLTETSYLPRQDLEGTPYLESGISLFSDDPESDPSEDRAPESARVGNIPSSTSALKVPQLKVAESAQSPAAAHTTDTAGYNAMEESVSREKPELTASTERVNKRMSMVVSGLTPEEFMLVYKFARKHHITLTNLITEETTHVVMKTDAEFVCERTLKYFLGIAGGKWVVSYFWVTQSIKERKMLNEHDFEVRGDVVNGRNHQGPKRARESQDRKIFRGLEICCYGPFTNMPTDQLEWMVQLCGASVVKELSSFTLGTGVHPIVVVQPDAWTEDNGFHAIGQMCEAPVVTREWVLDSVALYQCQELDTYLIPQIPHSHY
Chain of BRCA1/BARD1 (Q99728 whole entry, species assumed): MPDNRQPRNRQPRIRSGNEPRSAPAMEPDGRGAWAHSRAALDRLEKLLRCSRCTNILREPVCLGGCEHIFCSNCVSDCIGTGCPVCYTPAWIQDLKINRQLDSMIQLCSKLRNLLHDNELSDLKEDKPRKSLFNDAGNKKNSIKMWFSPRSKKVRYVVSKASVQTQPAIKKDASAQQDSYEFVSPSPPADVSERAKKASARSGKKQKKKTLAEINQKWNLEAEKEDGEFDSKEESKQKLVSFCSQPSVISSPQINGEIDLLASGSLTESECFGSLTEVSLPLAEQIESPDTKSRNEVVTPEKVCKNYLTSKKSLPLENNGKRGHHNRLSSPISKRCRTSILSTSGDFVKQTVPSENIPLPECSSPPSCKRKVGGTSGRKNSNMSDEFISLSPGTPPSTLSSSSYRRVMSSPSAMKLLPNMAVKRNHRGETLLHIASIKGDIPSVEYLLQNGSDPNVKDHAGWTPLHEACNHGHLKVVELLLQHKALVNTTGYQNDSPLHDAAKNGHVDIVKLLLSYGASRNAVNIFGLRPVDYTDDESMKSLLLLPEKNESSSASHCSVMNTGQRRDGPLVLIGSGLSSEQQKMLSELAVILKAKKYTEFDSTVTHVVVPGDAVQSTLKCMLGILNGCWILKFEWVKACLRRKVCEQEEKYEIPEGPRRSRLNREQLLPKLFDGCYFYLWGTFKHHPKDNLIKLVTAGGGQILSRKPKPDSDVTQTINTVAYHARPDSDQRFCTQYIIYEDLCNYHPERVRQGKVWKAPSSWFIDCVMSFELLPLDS

COc1ccc(C2=N[C@@H](c3ccc(Cl)cc3)[C@@H](c3ccc(Cl)cc3)N2C(=O)N2CCNC(=O)C2)c(OC(C)C)c1 [Nutlin-3a]
ReBiL signal suppression in BRCA1/BARD1 cell line above 10 μM: nonspecific activity
